# Results: US10947242B2, “[1,2,4]triazolo[1,5and#8208;A]pyrimidine compounds as PDE2 inhibitors” (Janssen Pharmaceutica NV, priority 2016, dated 2021)
# Like-named read-outs stand apart in the source and are kept apart here.
# Tests used:
# Type in all cases: biochemical
# [1] = biological target: T1, Human recombinant PDE3A (hPDE3A) (Homo sapiens, UniProt Q14432); assay: In vitro assay PDE3A (SPA, 3H-cAMP hydrolysis); details: for IC50: hPDE3B pIC50, read-out: pIC50 (converted); for Emax: read-out: hPDE3B Emax, read-out: Emax;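 on all read-outs here: the method names PDE3A and the table heading PDE3B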
# T1 construct: purchased Scottish Biomedical; host or cells: Sf9 insect cells
# Summary of the method: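 Human PDE3A, cloned from brain, as partially purified Sf9 lysate. Substrate 0.4 μM cAMP plus [3H]-cAMP (2.4 μCi/ml final) in 50 mM Tris pH 7.8, 8.3 mM MgCl2, 1.7 mM EGTA, 60 min at room temperature, 1% DMSO final. Hydrolysis read by SPA scintillation counting against no-enzyme blanks and DMSO controls.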
# [2] = biological target: T2, Human recombinant PDE10A (hPDE10A) (Homo sapiens, UniProt Q9Y233); assay: In vitro assay PDE10A, human clone (SPA, 3H-cAMP hydrolysis); details: human clone (h), default; for Emax: read-out: hPDE10A2 Emax; for IC50: read-out: hPDE10A2 pIC50 (converted)
# T2 construct: His tag (inferred from metal chelate purification); made in house; host or cells: Sf9 insect cells (baculovirus)
# Summary of the method: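 Human recombinant PDE10A was expressed in Sf9 cells via baculovirus and incubated with compound in 50 mM Tris pH 7.8, 8.3 mM MgCl2, 1.7 mM EGTA. Substrate was 60 nM cAMP plus 0.008 μCi 3H-cAMP for 60 min at room temperature, read by SPA scintillation counting. Controls used 1% DMSO, and blanks omitted enzyme.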
# [3] = biological target: T3, Human recombinant PDE2A (hPDE2A) (Homo sapiens, UniProt O00408); assay: In vitro assay PDE2A (SPA, 3H-cGMP hydrolysis); details: for IC50: read-out: hPDE2A pIC50 (converted); for Emax: read-out: hPDE2A Emax
# T3 construct: His tag (inferred from metal chelate purification); made in house; host or cells: Sf9 insect cells (baculovirus)
# [4] = human recombinant PDE2A, 10 μM cGMP substrate
# T1 sequence (Q14432 whole entry): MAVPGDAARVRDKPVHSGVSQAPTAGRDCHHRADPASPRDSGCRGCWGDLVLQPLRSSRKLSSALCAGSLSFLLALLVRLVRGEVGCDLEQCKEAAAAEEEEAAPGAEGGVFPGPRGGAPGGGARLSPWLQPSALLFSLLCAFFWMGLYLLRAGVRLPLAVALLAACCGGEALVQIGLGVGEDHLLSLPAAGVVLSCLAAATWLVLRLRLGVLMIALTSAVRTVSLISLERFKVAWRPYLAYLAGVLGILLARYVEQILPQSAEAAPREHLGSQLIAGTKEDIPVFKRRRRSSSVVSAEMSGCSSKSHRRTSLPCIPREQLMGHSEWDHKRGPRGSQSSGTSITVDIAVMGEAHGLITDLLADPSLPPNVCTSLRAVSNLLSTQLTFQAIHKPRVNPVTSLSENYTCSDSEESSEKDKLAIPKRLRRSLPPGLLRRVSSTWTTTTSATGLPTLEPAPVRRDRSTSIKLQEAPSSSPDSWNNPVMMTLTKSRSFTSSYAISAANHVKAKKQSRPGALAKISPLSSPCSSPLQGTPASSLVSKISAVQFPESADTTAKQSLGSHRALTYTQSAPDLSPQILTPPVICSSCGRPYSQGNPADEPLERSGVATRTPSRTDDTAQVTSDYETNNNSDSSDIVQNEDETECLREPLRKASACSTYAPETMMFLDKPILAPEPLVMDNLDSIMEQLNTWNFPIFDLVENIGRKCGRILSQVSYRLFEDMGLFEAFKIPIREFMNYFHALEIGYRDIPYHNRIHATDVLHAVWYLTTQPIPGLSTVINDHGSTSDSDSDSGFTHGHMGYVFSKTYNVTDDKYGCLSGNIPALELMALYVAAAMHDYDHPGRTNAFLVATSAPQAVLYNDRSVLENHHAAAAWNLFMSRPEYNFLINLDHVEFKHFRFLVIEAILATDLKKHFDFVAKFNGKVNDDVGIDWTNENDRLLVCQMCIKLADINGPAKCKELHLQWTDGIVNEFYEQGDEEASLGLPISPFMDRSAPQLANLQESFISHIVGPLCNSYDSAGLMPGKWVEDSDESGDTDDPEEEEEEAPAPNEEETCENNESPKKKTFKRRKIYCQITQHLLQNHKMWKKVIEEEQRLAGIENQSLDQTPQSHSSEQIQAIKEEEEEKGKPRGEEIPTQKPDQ
# T3 sequence (O00408 whole entry): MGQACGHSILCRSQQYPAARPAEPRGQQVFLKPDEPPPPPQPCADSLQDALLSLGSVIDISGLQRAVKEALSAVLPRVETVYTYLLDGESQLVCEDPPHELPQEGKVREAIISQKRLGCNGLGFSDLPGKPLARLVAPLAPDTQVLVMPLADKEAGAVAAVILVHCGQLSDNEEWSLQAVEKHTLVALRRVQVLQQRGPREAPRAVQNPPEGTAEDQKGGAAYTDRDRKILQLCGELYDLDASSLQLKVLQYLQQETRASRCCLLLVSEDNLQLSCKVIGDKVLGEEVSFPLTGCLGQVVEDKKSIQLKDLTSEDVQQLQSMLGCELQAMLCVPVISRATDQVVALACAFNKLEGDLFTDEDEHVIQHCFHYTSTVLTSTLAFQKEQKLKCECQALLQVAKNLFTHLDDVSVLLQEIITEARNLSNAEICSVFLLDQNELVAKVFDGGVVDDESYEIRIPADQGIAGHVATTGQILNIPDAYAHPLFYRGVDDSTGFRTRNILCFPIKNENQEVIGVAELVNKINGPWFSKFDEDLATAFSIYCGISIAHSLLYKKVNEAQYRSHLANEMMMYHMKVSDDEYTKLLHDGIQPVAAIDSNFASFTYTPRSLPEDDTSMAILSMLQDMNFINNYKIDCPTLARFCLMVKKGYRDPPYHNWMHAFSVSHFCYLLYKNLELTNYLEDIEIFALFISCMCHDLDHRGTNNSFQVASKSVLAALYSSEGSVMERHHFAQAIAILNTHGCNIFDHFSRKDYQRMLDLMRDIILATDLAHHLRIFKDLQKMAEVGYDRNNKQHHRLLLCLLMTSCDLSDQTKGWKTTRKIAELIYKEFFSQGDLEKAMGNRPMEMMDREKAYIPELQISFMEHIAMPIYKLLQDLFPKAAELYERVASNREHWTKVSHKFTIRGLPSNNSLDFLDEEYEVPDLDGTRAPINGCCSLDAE
# T2 sequence (Q9Y233 267-1055): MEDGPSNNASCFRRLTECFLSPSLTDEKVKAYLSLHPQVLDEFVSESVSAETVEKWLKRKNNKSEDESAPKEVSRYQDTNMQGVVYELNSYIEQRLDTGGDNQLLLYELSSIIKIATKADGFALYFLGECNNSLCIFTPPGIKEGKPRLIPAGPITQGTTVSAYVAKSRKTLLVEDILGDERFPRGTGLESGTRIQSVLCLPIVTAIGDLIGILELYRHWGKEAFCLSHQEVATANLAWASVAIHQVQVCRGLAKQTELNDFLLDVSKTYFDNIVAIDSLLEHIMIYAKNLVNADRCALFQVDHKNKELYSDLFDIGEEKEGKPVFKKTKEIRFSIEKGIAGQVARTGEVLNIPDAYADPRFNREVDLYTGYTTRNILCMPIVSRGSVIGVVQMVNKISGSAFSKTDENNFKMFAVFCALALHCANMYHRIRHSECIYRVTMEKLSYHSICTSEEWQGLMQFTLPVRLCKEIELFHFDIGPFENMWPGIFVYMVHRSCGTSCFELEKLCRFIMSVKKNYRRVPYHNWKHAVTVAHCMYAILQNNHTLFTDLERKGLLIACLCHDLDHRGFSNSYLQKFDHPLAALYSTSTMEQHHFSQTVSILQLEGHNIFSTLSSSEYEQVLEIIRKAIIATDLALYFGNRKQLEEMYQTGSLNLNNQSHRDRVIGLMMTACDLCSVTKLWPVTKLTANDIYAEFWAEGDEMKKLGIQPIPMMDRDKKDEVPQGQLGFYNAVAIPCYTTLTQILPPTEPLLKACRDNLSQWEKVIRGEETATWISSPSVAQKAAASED
SMILES,IC50 [1],Emax [1],Emax [2],IC50 [2],"IC50 [3, 4]",Emax ([3]; human recombinant PDE2A),Emax [3],IC50 [3]
C[C@@H]1CCN(C(=O)c2ccc(F)c(C3CC3)c2)C[C@H]1c1cc(C(F)F)nc2ncnn12 [Compound 135],2630 nM,81%,97%,191 nM,3.31 nM,100%,100%,3.31 nM
C[C@@H]1CCN(C(=O)c2ccc(C(C)(C)C)o2)C[C@H]1c1cc(C(F)F)nc2ncnn12 [Compound 136],> 10000 nM,51%,97%,288 nM,3.39 nM,101%,101%,3.39 nM
Cc1c(C(=O)N2[C@H]3CC[C@@H]2[C@H](c2cc(C(F)F)nc4ncnn24)CC3)oc2ccccc12 [Compound 140],8910 nM,57%,83%,3090 nM,29.5 nM,100%,100%,29.5 nM
Cc1cc(C(=O)N2CC[C@@H](C)[C@H](c3cc(C(F)F)nc4ncnn34)C2)nc(C)n1 [Compound 141],> 10000 nM,12%,81%,2040 nM,29.5 nM,100%,100%,29.5 nM
C[C@@H]1CCN(C(=O)c2ccncc2N)C[C@H]1c1cc(C(F)F)nc2ncnn12 [Compound 142],> 10000 nM,35%,79%,2570 nM,30.2 nM,100%,100%,30.2 nM
Cc1ccc(C(=O)N2CC[C@@H](C)[C@H](c3cc(C(F)F)nc4ncnn34)C2)c(C)n1 [Compound 143],7940 nM,58%,77%,2400 nM,33.1 nM,97%,97%,33.1 nM
CC(C)Oc1cc(C(=O)N2CC[C@@H](C)[C@H](c3cc(C(F)F)nc4ncnn34)C2)cc(C(C)C)c1 [Compound 144],2400 nM,86%,96%,468 nM,34.7 nM,100%,100%,34.7 nM
Cc1c(C(=O)N2CC[C@@H](C)[C@H](c3cc(C(F)F)nc4ncnn34)C2)ccc2c1OCO2 [Compound 145],2040 nM,86%,93%,646 nM,36.3 nM,99%,99%,36.3 nM
C[C@@H]1CCN(C(=O)c2cnc3ccccc3c2O)C[C@H]1c1cc(C(F)F)nc2ncnn12 [Compound 146],1660 nM,85%,76%,3310 nM,,,100%,37.2 nM
Cc1csc(C(=O)N2CC[C@@H](C)[C@H](c3cc(C(F)F)nc4ncnn34)C2)c1Cl [Compound 147],2240 nM,81%,90%,871 nM,38 nM,100%,100%,38 nM
C[C@@H]1CCN(C(=O)c2cccc(C(F)(F)F)c2F)C[C@H]1c1cc(C(F)F)nc2ncnn12 [Compound 148],5620 nM,67%,89%,912 nM,38.9 nM,101%,101%,38.9 nM
C[C@@H]1CCN(C(=O)c2c(F)cccc2F)C[C@H]1c1cc(C(F)F)nc2ncnn12 [Compound 149],5130 nM,66%,83%,1820 nM,38.9 nM,99%,99%,38.9 nM
C[C@@H]1CCN(C(=O)c2cccnc2N)C[C@H]1c1cc(C(F)F)nc2ncnn12 [Compound 150],> 10000 nM,22%,72%,3550 nM,39.8 nM,100%,100%,39.8 nM
Cc1nc2ccncc2cc1C(=O)N1CC[C@@H](C)[C@H](c2cc(C(F)F)nc3ncnn23)C1 [Compound 151],> 10000 nM,11%,85%,1380 nM,,,100%,40.7 nM
Cc1cc(C(=O)N2CC[C@@H](C)[C@H](c3cc(C(F)F)nc4ncnn34)C2)on1 [Compound 152],> 10000 nM,30%,80%,2040 nM,41.7 nM,99%,99%,41.7 nM
C[C@@H]1CCN(C(=O)c2ccc(Br)cn2)C[C@H]1c1cc(C(F)F)nc2ncnn12 [Compound 153],3090 nM,76%,89%,1070 nM,43.7 nM,100%,100%,43.7 nM
C[C@@H]1CCN(C(=O)c2ccc(Cl)cn2)C[C@H]1c1cc(C(F)F)nc2ncnn12 [Compound 154],> 10000 nM,50%,79%,2750 nM,51.3 nM,100%,100%,51.3 nM
C[C@@H]1CCN(C(=O)c2ccncc2F)C[C@H]1c1cc(C(F)F)nc2ncnn12 [Compound 155],> 10000 nM,37%,72%,2950 nM,53.7 nM,98%,98%,53.7 nM

# Further lines, results first:
IC50 [1],Emax [1],Emax [2],IC50 [2],"IC50 [3, 4]",Emax ([3]; human recombinant PDE2A),Emax [3],IC50 [3],SMILES
> 10000 nM,19%,81%,2000 nM,58.9 nM,100%,100%,58.9 nM,Cc1ncoc1C(=O)N1CC[C@@H](C)[C@H](c2cc(C(F)F)nc3ncnn23)C1 [Compound 156]
> 10000 nM,33%,75%,2570 nM,60.3 nM,99%,99%,60.3 nM,Cc1cc(C(=O)N2CC[C@@H](C)[C@H](c3cc(C(F)F)nc4ncnn34)C2)no1 [Compound 157]
> 10000 nM,19%,78%,2140 nM,64.6 nM,100%,100%,64.6 nM,C[C@@H]1CCN(C(=O)c2csc(N)n2)C[C@H]1c1cc(C(F)F)nc2ncnn12 [Compound 158]
> 10000 nM,42%,75%,3240 nM,72.4 nM,100%,100%,72.4 nM,Cc1c(C(=O)N2CC[C@@H](C)[C@H](c3cc(C(F)F)nc4ncnn34)C2)ccnc1Cl [Compound 159]
> 10000 nM,34%,88%,1020 nM,72.4 nM,99%,99%,72.4 nM,Cc1cnoc1C(=O)N1CC[C@@H](C)[C@H](c2cc(C(F)F)nc3ncnn23)C1 [Compound 160]
> 10000 nM,11%,74%,3090 nM,74.1 nM,98%,98%,74.1 nM,Cc1nc(C(=O)N2CC[C@@H](C)[C@H](c3cc(C(F)F)nc4ncnn34)C2)c(C(F)(F)F)o1 [Compound 161]
> 10000 nM,26%,72%,4270 nM,74.1 nM,97%,97%,74.1 nM,C[C@@H]1CCN(C(=O)c2cccc(N)n2)C[C@H]1c1cc(C(F)F)nc2ncnn12 [Compound 162]
> 10000 nM,12%,74%,3240 nM,89.1 nM,98%,98%,89.1 nM,C[C@@H]1CCN(C(=O)c2cc(C#N)ccn2)C[C@H]1c1cc(C(F)F)nc2ncnn12 [Compound 163]
> 10000 nM,22%,82%,1950 nM,89.1 nM,100%,100%,89.1 nM,C[C@@H]1CCN(C(=O)c2cncn2C)C[C@H]1c1cc(C(F)F)nc2ncnn12 [Compound 164]
> 10000 nM,36%,78%,3470 nM,93.3 nM,100%,100%,93.3 nM,COc1ccc(C(C)(C)C)cc1C(=O)N1CC[C@@H](C)[C@H](c2cc(C(F)F)nc3ncnn23)C1 [Compound 165]
> 10000 nM,32%,81%,2240 nM,93.3 nM,98%,98%,93.3 nM,C[C@@H]1CCN(C(=O)c2cc3n(n2)CCO3)C[C@H]1c1cc(C(F)F)nc2ncnn12 [Compound 166]
